In general, pIC50 refers to the IC50 on a negative log10 scale, so that one unit is a factor of ten.

The text below walks through data of patent publication US20230089867A1, “CYCLIC PENTAMER COMPOUNDS AS PROPROTEIN CONVERTASE SUBTILISIN/KEXIN TYPE 9 (PCSK9) INHIBITORS FOR THE TREATMENT OF METABOLIC DISORDER” (Novartis AG, priority 2018, published 2023).

The target in data set [1] is human PCSK9 (Homo sapiens, UniProt Q8NBP7). Briefly: PCSK9 ligand binding TR-FRET assay (interference with binding of human PCSK9 to human LDLR). The essentials: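 Threefold compound dilutions were pre-incubated 30 min with PCSK9, after which 4 nM Europium Kryptate-tagged human LDLR ectodomain was added for a further 2 h.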
human PCSK9, sequence (Q8NBP7 153-692): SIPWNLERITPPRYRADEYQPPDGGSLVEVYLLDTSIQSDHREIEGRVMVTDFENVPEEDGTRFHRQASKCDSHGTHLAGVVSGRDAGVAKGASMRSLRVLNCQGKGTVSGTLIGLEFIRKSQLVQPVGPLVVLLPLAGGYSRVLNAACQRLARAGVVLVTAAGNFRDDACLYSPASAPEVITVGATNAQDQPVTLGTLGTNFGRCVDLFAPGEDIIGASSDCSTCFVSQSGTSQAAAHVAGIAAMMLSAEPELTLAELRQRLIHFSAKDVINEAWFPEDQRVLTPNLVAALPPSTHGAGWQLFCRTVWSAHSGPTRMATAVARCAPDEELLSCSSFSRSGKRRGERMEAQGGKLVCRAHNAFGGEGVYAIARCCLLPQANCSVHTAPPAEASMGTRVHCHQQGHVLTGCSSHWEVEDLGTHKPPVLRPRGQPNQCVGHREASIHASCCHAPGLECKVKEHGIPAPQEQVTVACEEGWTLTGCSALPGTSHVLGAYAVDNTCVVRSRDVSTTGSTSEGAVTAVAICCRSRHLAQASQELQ
human PCSK9, sequence (Q8NBP7 31-152 partner limits assumed): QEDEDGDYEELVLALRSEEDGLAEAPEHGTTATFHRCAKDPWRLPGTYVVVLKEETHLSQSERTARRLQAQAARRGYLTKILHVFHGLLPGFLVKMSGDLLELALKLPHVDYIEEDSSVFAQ
(Time-resolved FRET reads energy transfer from a long-lived donor to a nearby acceptor.)

For data set [2] the following is noted: from (R)-4-(((1S,2S)-2-((S)-3-((S)-2-((S)-2-((4-chloro-2-(4-(2-((dimethylamino)methyl)-1-methyl-1H-imidazol-5-yl)phenoxy)benzyl)amino)propanamido)-3-methoxy-N-methylpropanamido)-4-(4-chlorophenyl)butanamido)cyclohexyl)(methyl)amino)-3-((6-methylpyridin-2-yl)methyl)-4-oxobutanoic acid; amide bond; 18-membered ring; HATU/HOAt/2,6-lutidine; DCM; 45.0 °C.
The conditions of data set [3]: amide bond, 18-membered ring, HATU/HOAt/2,6-lutidine.

pIC50: −log10 of the molar value. Where two headings read alike, the source gives them in different places.

Take `COC[C@@H]1NC(=O)[C@H](C)N(Cc2ccc(Cl)cc2Oc2ccc(-c3cnc(CN(C)C)n3C)cc2)C(=O)C[C@@H](Cc2cccc(C)n2)C(=O)N(C)[C@H]2CCCC[C@@H]2NC(=O)C[C@H](Cc2ccc(Cl)cc2)N(C)C1=O` [Compound 265, (4S,7S,10S,14R,16aS,20aS)-11-(4-chloro-2-(4-(2-((dimethylamino)methyl)-1-methyl-1H-imidazol-5-yl)phenoxy)benzyl)-4-(4-chlorobenzyl)-7-(methoxymethyl)-5,10,16-trimethyl-14-((6-methylpyridin-2-yl)methyl)hexadecahydrobenzo-[l][1,4,7,11,14]pentaazacyclooctadecine-2,6,9,12,15(3H)-pentaone]: the Max % inhibition in data set [1] (PCSK9 FRET assay, efficacy (Amax), 100% = 1 uM unlabeled human PCSK9, 0% = DMSO) turned out to be 104.88%. In addition, the pIC50 in data set [1] (TR-FRET, human PCSK9 Alexa Fluor 647 / human LDLR extracellular domain-Europium Kryptate, read-out: PCSK9 FRET Assay IC50) was 6.51. For the same molecule, the ring closure, isolated yield in data set [2] was found to be 31.1%.

Turning to “(2S,5S,8S,13S,16R)-16-benzyl-8-(4-chlorobenzyl)-1-(4-ethyl-2-(4-(1-methyl-2-(pyrrolidin-1-ylmethyl)-1H-imidazol-5-yl)phenoxy)benzyl)-5-(methoxymethyl)-2,7,13,14-tetramethyl-1,4,7,11,14-pentaazacyclooctadecane-3,6,10,15,18-pentaone hydrochloride”, the ring closure, yield after HPLC in data set [3] (DCM, 0.777 mM, 40.0 °C) is 47%.

Consider “(4S,7S,10S,14R,16aS,20aS)-14-Benzyl-11-(4-chloro-2-(4-(2-((dimethylamino)methyl)-1-methyl-1H-imidazol-5-yl)phenoxy)benzyl)-4-(4-chlorobenzyl)-7-(methoxymethyl)-5,16-dimethyl-10-(3-(3,3,4,4-tetrafluoropyrrolidin-1-yl)propyl)hexadecahydrobenzo[l][1,4,7,11,14]pentaazacyclooctadecine-2,6,9,12,15(3H)-pentaone”, for which, in data set [3] (DCM, 0.524 mM, 39.0 °C), the ring closure, yield after HPLC came out at 17%.

For the molecule “(4S,7S,10S,16aS,20aS)-4-(4-chlorobenzyl)-11-(2-(difluoromethoxy)-6-(4-(2-((dimethylamino)methyl)-1-methyl-1H-imidazol-5-yl)phenoxy)benzyl)-7-(methoxymethyl)-5,10,16-trimethylhexadecahydro-benzo[l][1,4,7,11,14]pentaazacyclooctadecine-2,6,9,12,15(3H)-pentaone”, the ring closure, yield after HPLC in data set [3] (DCM/NMP 10:1, 0.91 mM, 40.0 °C) was found to be 22%.
